Patent US20250186541A1, “DLL3 TARGETING PEPTIDES AND CONSTRUCTS THEREOF” (MARIANA ONCOLOGY INC., priority 2023, published 2025)
Numbered stars: 1 amine (or outer) side, 2 acyl side, 3 side chain; on linkers, the order of the positions; unused ones are H or OH. Bridge positions count the residues as written; N and C are the ends. Square brackets hold non-standard residues; d marks the D form. Peptide text beside a SMILES is read from it. * marks the point of attachment. Ala(piperidin-4-yl) = O=C([C@H](CC1CCN([*:3])CC1)N[*:1])[*:2]; DOTA = O=C(O)CN1CCN(CC(=O)O)CCN(CC(=O)*)CCN(CC(=O)O)CC1; Phe(4-CH2NH2) = NCc1ccc(C[C@H](N)C(=O)O)cc1; 1Nal = N[C@@H](Cc1cccc2ccccc12)C(=O)O; 2Nal = N[C@@H](Cc1ccc2ccccc2c1)C(=O)O; Phe(2-Me) = Cc1ccccc1C[C@H](N)C(=O)O; tBuAla = CC(C)(C)C[C@H](N)C(=O)O; αMeD = C[C@](N)(CC(=O)O)C(=O)O; AllylGly = C=CC[C@H](N)C(=O)O; αMeP = C[C@@]1(C(=O)O)CCCN1; NMeS = CN[C@@H](CO)C(=O)O; Ahx = NCCCCCC(=O)O

T1: human DLL3 (Homo sapiens, UniProt Q9NYJ7)
T1 construct: biotin (biotinylated)
T1 sequence (Q9NYJ7 27-618): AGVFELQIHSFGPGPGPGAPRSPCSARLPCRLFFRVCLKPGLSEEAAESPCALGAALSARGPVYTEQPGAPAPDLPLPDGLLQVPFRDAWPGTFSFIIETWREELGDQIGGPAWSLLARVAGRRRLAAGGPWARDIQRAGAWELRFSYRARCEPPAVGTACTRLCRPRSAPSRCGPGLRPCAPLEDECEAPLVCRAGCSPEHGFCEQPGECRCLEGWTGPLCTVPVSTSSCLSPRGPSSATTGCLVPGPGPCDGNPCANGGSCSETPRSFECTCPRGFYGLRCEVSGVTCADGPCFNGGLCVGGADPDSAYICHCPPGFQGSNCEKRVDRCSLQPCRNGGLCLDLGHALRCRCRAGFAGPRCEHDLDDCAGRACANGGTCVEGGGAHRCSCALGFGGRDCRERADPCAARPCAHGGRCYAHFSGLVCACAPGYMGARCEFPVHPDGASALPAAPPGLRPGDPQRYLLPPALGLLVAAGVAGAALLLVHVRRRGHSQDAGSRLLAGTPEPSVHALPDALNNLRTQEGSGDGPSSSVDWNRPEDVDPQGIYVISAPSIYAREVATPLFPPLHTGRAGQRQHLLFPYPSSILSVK


Experiments:
human DLL3 = target: T1, human DLL3; assay: Affinity determination by Surface Plasmon Resonance (SPR), Biacore, 1:1 binding model; settings: biotinylated human DLL3 on streptavidin chip, 25° C.; NB = nonbinding
Procedure, shortened: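 SPR with biotinylated human DLL3 captured on a streptavidin chip, with a reference surface subtracted. Samples were injected at several concentrations at 100 μL/min in phosphate buffer with 137 mM NaCl, 2.7 mM KCl, 0.05% P20 and 2% DMSO. Kinetic and affinity constants came from a 1:1 binding fit.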

SHP-77 cells [1] = assay: Internalization of [177Lu]Lu-labeled peptide after glycine acid wash, gamma counter internalized fraction; assay type: cell-based, human; settings: [177Lu]Lu-test peptide, 1 h, 37° C., acid wash 50 mM Glycine pH 2.5
Experimental: (§1) Example 4. Cell Binding, Internalization, and Radiolabeling of Targeting Moieties Polypeptides General Procedure for Radiolabeling of RPTs with [^177Lu]LuCl3
(§2) [^177Lu]LuCl3 was received from venders in HCl solution. For every mCi of [^177Lu]LUCl3 added to the reaction vial (1.5 mL Eppendorf vial), ammonium acetate buffer (0.2 M, pH 4.9, 100 μL, containing 1% w/v ascorbic acid and 6% v/v ethanol) and peptide conjugate (1 nmol) was added. The pH of the solution was determined to be approximately 5 by using pH strips. The reaction vial was incubated at 80° C., 700 RPM for 17-20 minutes. A sample from the reaction was analyzed by RP-HPLC using an Agilent Infinity II 1260 HPLC to determine reaction completion and radiochemical purity. HPLC conditions: Waters XBridge BEH […] Column, 130 Å, 3.5 um, 4.6 mm×250 mm; mobile phase: Solvent A=water (with 0.1% formic acid), solvent B=acetonitrile (with 0.1% formic acid). Gradients: 25-45% B in 10 minutes, 45-65% B in 12 minutes, 65-90% in 6 minutes at a flow rate of 0.5 mL/min. Required amounts of the product was formulated in 1% PBSA for cell studies.
(§3) The study was conducted using SHP-77cells (Table 7) Adherent cell studies: The cells were cultured in appropriate culture media (20 mL) in tissue culture treated T150 flasks at 37° C. and 5% CO2. Adherent cells were detached (60-70% confluent) using 5 mL Versene at 37° C. for 3 min. After confirming the viability using countess and count of detached cells using Trypan blue, the cells were centrifuged at 4° C. for 5 minutes (1,000 rpm). The cell pellet obtained was washed once with PBS and resuspended in 1% PBSA to obtain the desired cell concentration (5-25 million cells/mL).
as §3, with “Suspension” for “The study was conducted using SHP-77cells (Table 7) Adherent”, “CO2.” for “CO2. Adherent cells were detached (60-70% confluent) using 5 mL Versene at 37° C. for 3 min.”, “viability” for “viability using countess”
(§4) Cell numbers used for the assay were in the range of 5 million cells/condition −25 million cells/condition.
Internalization: The resuspended cells in 300 μl of 1% PBSA and counted in the gamma counter as “bound fraction” were collected in 1.5 ml Eppendorf tube and pelleted. The pelleted cells were incubated with 300 μl of 50 mM Glycine pH=2.5 for 3 minutes and then pelleted discarding the supernatant. This process was repeated one more time. The pelleted cells were washed with 300 μl of cold 1% PBSA and then resuspended in 300 μl 0.3M NaOH. This was counted in the gamma counter as “internalized fraction”.
(§5) SHP-77 cells are human-derived, non-engineered SCLC cells.

SHP-77 cells [2] = assay: Cell binding (total uptake) of [177Lu]Lu-labeled peptide, gamma counter bound fraction; assay type: cell-based, human; settings: [177Lu]Lu-test peptide, 1 h, 37° C., 1% PBSA
Experimental: as §1, §2, §3
as §3, with “Suspension” for “The study was conducted using SHP-77cells (Table 7) Adherent”, “CO2.” for “CO2. Adherent cells were detached (60-70% confluent) using 5 mL Versene at 37° C. for 3 min.”, “viability” for “viability using countess”
as §4
Total uptake: Cells were incubated with 300 μL (0.8 μCi) of the incubation buffer (containing radiolabeled peptide [^177Lu]Lu-test peptide) for 1 hour at 37 C (Table 8). Post incubation, the cells were pelleted and washed 2 times using cold PBS+1% BSA. The supernatant and washes were combined and counted together as “unbound fraction” in a gamma counter. The cells were then resuspended in 300 μL of 1% PBS+1% BSA and counted in the gamma counter as “bound fraction”.
as §5

[3] = target: DLL3 on SHP-77 cells (human) (UniProt Q9NYJ7); assay: 177Lu-labelled peptide on SHP-77 cells, 1 h 37 C, gamma count of bound fraction

| Molecule | Kd (human DLL3) [pM] | % Binding [3] [%] | % Internalization (out of bound fraction) (SHP-77 cells [1]) [%] | % Binding (SHP-77 cells [2]) [%] |
| --- | --- | --- | --- | --- |
| CC(=O)N[C@@H](CC1CCNCC1)C(=O)N(C)[C@@H](CO)C(=O)N[C@@H](CC(=O)O)C(=O)N[C@H]1CSSC[C@@H](C(=O)N2CCC[C@@]2(C)C(=O)N[C@@H](Cc2ccccc2)C(=O)N[C@@H](CC(=O)O)C(N)=O)NC(=O)[C@H](CC(N)=O)NC(=O)[C@H](Cc2ccc3ccccc3c2)NC(=O)[C@H](Cc2ccc(CNC(=O)CN3CCN(CC(=O)O)CCN(CC(=O)O)CCN(CC(=O)O)CC3)cc2)NC(=O)[C@H](CC(C)(C)C)NC(=O)[C@H](Cc2cccc3ccccc23)NC1=O [compound 191, Ac-[3-(4-piperidinyl)-Ala]-(NMe-Ser)-D-C(3)-(1Nal)-(t-Bu-Ala)-[PAF(DOTA)]-(2Nal)-N-C(3)-(aMe-P)-F-D-CONH2] (Ac-[Ala(piperidin-4-yl)][NMeS]DC[1Nal][tBuAla][Phe(4-CH2NH2)](DOTA)[2Nal]NC[αMeP]FD-NH2; disulfide 4-10) | 210 | – | 48 | 10 |
| CC(=O)N[C@@H](CC1CCNCC1)C(=O)N(C)[C@@H](CO)C(=O)N[C@@H](CC(N)=O)C(=O)N[C@H]1CSSC[C@@H](C(=O)N2CCC[C@@]2(C)C(=O)N[C@@H](Cc2ccccc2)C(=O)N[C@@H](CC(=O)O)C(N)=O)NC(=O)[C@H](CC(N)=O)NC(=O)[C@H](Cc2ccc3ccccc3c2)NC(=O)[C@H](Cc2ccc(CNC(=O)CN3CCN(CC(=O)O)CCN(CC(=O)O)CCN(CC(=O)O)CC3)cc2)NC(=O)[C@H](CC(C)(C)C)NC(=O)[C@H](Cc2cccc3ccccc23)NC1=O [compound 192, Ac-[3-(4-piperidinyl)-Ala]-(NMe-Ser)-N-C(3)-(1Nal)-(t-Bu-Ala)-[PAF(DOTA)]-(2Nal)-D-C(3)-(aMe-P)-F-D-CONH2] (Ac-[Ala(piperidin-4-yl)][NMeS]NC[1Nal][tBuAla][Phe(4-CH2NH2)](DOTA)[2Nal]NC[αMeP]FD-NH2; disulfide 4-10) | 270 | – | 45 | 9 |
| Cc1ccccc1C[C@H](NC(=O)[C@]1(C)CCCN1C(=O)[C@@H]1CSSC[C@H](NC(=O)[C@H](CC(=O)O)NC(=O)[C@H](CO)NC(=O)[C@@H](C)NC(=O)CN2CCN(CC(=O)O)CCN(CC(=O)O)CCN(CC(=O)O)CC2)C(=O)N[C@@H](Cc2cccc3ccccc23)C(=O)N[C@@H](CC(C)(C)C)C(=O)N[C@@H](CCC(N)=O)C(=O)N[C@@H](Cc2ccc3ccccc3c2)C(=O)N[C@@H](CC(N)=O)C(=O)N1)C(=O)N[C@@H](CC(=O)O)C(N)=O [compound 154, DOTA-(D-Ala)-S-D-C(3)-(1Nal)-(t-Bu-Ala)-Q-(2Nal)-N-C(3)-(aMe-P)-(2Me-F)-D-CONH2] ({DOTA}-[dA]SDC[1Nal][tBuAla]Q[2Nal]NC[αMeP][Phe(2-Me)]D-NH2; disulfide 4-10) | 180 | – | 58 | 10 |
| {DOTA}-[dA]SDC[1Nal][tBuAla]Q[2Nal]NC[αMeP][Phe(2-Me)]D-NH2 (disulfide 4-10; also: 177Lu chelated) [[177Lu]Lu-Cpd #154] | – | 10 | – | – |

The remaining molecules from weak to strong by Kd (human DLL3), led by results:

| Kd (human DLL3) [pM] | % Binding [3] [%] | Molecule | % Internalization (out of bound fraction) (SHP-77 cells [1]) [%] | % Binding (SHP-77 cells [2]) [%] |
| --- | --- | --- | --- | --- |
| 180 | – | CC(=O)N[C@@H](CC1CCNCC1)C(=O)N[C@@H](CO)C(=O)N[C@@H](CC(=O)O)C(=O)N[C@H]1CC=CC[C@@H](C(=O)N2CCC[C@@]2(C)C(=O)N[C@@H](Cc2ccccc2)C(=O)N[C@@H](CC(=O)O)C(N)=O)NC(=O)[C@H](CC(N)=O)NC(=O)[C@H](Cc2ccc3ccccc3c2)NC(=O)[C@H](Cc2ccc(CNC(=O)CN3CCN(CC(=O)O)CCN(CC(=O)O)CCN(CC(=O)O)CC3)cc2)NC(=O)[C@H](CC(C)(C)C)NC(=O)[C@H](Cc2cccc3ccccc23)NC1=O [compound 200, Ac-[3-(4-piperidinyl)-Ala]-S-D-AllyG(4)-(1Nal)-(t-Bu-Ala)-[PAF(DOTA)]-(2Nal)-N-AllyG(4)-(aMe-P)-F-D-CONH2] (Ac-[Ala(piperidin-4-yl)]SD[AllylGly][1Nal][tBuAla][Phe(4-CH2NH2)](DOTA)[2Nal]N[AllylGly][αMeP]FD-NH2; staple 4-10) | 46 | 6 |
| 120 | – | CC(=O)N[C@H](C)C(=O)N[C@@H](CO)C(=O)N[C@@H](CC(=O)O)C(=O)N[C@H]1CSSC[C@@H](C(=O)N2CCC[C@@]2(C)C(=O)N[C@@H](Cc2ccccc2)C(=O)N[C@@H](CC(=O)O)C(N)=O)NC(=O)[C@H](CC(N)=O)NC(=O)[C@H](Cc2ccc3ccccc3c2)NC(=O)[C@H](Cc2ccc(CNC(=O)CN3CCN(CC(=O)O)CCN(CC(=O)O)CCN(CC(=O)O)CC3)cc2)NC(=O)[C@H](CC(C)(C)C)NC(=O)[C@H](Cc2cccc3ccccc23)NC1=O [Cpd #158, Ac-(D-Ala)-S-D-C(3)-(1Nal)-(t-Bu-Ala)-[PAF(DOTA)]-(2Nal)-N-C(3)-(aMe-P)-F -D-CONH2] (Ac-[dA]SDC[1Nal][tBuAla][Phe(4-CH2NH2)](DOTA)[2Nal]NC[αMeP]FD-NH2; disulfide 4-10) | 63 | 25 |
| 47 | – | CC(C)(C)C[C@@H]1NC(=O)[C@H](Cc2cccc3ccccc23)NC(=O)[C@@H](NC(=O)[C@H](CC(=O)O)NC(=O)[C@H](CO)NC(=O)CCCCCNC(=O)CN2CCN(CC(=O)O)CCN(CC(=O)O)CCN(CC(=O)O)CC2)CSSC[C@@H](C(=O)N2CCC[C@@]2(C)C(=O)N[C@@H](Cc2ccccc2)C(=O)N[C@@H](CC(=O)O)C(N)=O)NC(=O)[C@H](CC(N)=O)NC(=O)[C@H](Cc2ccc3ccccc3c2)NC(=O)[C@H](CC2CCNCC2)NC1=O [compound 176, DOTA-Ahx-S-D-C(3)-(1Nal)-(t-Bu-Ala)-[3-(4-piperidinyl)-Ala]-(2Nal)-N-C(3)-(aMe-P)-F -D-CONH2] ({DOTA-Ahx}-SDC[1Nal][tBuAla][Ala(piperidin-4-yl)][2Nal]NC[αMeP]FD-NH2; disulfide 3-9) | 53 | 6 |
| 26 | – | CC(=O)N[C@H](C)C(=O)N[C@@H](CO)C(=O)N[C@@](C)(CC(=O)O)C(=O)N[C@H]1CSSC[C@@H](C(=O)N2CCC[C@@]2(C)C(=O)N[C@@H](Cc2ccccc2)C(=O)N[C@@H](CC(=O)O)C(=O)N[C@H](CCCCNC(=O)CN2CCN(CC(=O)O)CCN(CC(=O)O)CCN(CC(=O)O)CC2)C(N)=O)NC(=O)[C@H](CC(N)=O)NC(=O)[C@H](Cc2ccc3ccccc3c2)NC(=O)[C@H](CCC(N)=O)NC(=O)[C@H](CC(C)(C)C)NC(=O)[C@H](Cc2cccc3ccccc23)NC1=O [Cpd #168, Ac-(D-Ala)-S-(aMe-Asp)-C(3)-(1Nal)-(t-Bu-Ala)-Q-(2Nal)-N-C(3)-(aMe-P)-F-D-[D-Lys(DOTA)]-NH2] (Ac-[dA]S[αMeD]C[1Nal][tBuAla]Q[2Nal]NC[αMeP]FD[dK](DOTA)-NH2; disulfide 4-10) | 59 | 8 |
